Our source for the Activity and inhibition values is ChEMBL document CHEMBL1770059, “Identification of chemicals to inhibit the kinase activity of leucine-rich repeat kinase 2 (LRRK2), a Parkinson's disease-associated protein” (Bioorg Med Chem Lett, 2011).

Series [1] deals with Leucine-rich repeat serine/threonine-protein kinase 2 (Homo sapiens), Q5S007 [G2019S]. The series can be described thus: Inhibition of purified N-terminal GST-tagged LRRK2 G2019S mutant assessed as residual activity of enzyme at 25 uM.
Leucine-rich repeat serine/threonine-protein kinase 2 (Homo sapiens), Q5S007 [G2019S], sequence (Q5S007 whole entry G2019S): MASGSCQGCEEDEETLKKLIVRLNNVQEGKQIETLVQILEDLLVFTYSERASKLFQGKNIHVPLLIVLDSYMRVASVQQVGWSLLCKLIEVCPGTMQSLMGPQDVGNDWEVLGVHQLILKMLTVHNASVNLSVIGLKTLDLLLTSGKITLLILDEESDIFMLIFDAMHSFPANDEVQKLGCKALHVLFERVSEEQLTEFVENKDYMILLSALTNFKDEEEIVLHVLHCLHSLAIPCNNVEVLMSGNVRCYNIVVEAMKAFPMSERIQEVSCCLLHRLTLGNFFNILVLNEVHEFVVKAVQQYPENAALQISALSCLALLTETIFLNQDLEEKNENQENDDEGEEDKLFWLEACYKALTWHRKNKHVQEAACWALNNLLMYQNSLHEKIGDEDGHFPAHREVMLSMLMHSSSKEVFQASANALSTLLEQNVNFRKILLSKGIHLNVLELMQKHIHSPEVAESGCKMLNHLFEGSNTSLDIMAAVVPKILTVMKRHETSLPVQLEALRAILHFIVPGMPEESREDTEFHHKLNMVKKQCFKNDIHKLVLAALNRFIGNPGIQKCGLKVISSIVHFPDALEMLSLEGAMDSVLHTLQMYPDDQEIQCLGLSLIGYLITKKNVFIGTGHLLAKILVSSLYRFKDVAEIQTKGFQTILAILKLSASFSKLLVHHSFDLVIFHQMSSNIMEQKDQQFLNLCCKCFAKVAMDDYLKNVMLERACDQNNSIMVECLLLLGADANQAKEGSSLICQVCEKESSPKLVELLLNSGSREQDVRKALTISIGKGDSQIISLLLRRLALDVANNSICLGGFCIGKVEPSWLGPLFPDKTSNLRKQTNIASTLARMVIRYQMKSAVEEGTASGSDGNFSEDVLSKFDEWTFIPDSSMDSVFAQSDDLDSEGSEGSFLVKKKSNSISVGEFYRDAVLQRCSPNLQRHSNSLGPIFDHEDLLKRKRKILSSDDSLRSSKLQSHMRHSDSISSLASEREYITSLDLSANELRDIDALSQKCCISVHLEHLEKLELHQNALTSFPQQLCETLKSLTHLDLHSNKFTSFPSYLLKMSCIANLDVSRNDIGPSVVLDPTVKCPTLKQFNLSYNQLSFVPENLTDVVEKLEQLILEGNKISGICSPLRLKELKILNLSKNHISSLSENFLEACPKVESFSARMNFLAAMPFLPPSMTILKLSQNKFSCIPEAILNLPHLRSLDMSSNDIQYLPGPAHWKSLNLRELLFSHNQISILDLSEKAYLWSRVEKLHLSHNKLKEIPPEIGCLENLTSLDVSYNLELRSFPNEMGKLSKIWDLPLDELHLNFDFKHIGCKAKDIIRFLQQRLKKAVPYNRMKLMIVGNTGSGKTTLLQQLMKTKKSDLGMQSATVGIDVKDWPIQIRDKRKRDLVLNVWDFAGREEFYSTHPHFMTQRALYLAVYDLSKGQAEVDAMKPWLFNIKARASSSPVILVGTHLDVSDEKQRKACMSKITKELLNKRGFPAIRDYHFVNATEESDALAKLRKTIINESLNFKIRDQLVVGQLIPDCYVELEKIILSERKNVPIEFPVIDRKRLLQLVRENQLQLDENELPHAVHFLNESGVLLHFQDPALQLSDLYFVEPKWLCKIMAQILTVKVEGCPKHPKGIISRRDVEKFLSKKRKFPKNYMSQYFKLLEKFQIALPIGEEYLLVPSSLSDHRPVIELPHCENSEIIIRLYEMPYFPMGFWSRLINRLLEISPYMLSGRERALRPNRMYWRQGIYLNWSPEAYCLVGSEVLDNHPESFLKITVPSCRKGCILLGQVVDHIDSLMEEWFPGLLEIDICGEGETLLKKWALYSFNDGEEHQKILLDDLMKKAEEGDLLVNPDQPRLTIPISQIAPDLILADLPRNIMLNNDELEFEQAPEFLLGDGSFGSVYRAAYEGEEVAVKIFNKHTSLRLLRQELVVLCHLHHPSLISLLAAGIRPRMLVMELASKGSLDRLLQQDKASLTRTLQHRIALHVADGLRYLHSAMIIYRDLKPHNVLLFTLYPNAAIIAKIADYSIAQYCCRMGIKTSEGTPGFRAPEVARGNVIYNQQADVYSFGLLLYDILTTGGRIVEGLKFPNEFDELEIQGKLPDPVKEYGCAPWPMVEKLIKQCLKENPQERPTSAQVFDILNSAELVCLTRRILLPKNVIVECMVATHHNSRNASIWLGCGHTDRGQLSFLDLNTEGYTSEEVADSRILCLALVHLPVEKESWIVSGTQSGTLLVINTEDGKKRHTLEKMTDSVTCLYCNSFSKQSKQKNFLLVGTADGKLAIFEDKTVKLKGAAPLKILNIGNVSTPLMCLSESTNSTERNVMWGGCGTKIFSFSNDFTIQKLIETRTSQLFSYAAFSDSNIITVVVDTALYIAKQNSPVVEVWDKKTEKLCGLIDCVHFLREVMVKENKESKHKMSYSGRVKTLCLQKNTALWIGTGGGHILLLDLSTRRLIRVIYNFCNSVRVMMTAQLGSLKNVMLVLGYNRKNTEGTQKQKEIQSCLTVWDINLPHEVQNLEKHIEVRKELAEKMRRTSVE
Series [2] has as its target T1, Mitogen-activated protein kinase kinase kinase 5 (Homo sapiens) (UniProt Q99683).
T1 sequence (whole entry): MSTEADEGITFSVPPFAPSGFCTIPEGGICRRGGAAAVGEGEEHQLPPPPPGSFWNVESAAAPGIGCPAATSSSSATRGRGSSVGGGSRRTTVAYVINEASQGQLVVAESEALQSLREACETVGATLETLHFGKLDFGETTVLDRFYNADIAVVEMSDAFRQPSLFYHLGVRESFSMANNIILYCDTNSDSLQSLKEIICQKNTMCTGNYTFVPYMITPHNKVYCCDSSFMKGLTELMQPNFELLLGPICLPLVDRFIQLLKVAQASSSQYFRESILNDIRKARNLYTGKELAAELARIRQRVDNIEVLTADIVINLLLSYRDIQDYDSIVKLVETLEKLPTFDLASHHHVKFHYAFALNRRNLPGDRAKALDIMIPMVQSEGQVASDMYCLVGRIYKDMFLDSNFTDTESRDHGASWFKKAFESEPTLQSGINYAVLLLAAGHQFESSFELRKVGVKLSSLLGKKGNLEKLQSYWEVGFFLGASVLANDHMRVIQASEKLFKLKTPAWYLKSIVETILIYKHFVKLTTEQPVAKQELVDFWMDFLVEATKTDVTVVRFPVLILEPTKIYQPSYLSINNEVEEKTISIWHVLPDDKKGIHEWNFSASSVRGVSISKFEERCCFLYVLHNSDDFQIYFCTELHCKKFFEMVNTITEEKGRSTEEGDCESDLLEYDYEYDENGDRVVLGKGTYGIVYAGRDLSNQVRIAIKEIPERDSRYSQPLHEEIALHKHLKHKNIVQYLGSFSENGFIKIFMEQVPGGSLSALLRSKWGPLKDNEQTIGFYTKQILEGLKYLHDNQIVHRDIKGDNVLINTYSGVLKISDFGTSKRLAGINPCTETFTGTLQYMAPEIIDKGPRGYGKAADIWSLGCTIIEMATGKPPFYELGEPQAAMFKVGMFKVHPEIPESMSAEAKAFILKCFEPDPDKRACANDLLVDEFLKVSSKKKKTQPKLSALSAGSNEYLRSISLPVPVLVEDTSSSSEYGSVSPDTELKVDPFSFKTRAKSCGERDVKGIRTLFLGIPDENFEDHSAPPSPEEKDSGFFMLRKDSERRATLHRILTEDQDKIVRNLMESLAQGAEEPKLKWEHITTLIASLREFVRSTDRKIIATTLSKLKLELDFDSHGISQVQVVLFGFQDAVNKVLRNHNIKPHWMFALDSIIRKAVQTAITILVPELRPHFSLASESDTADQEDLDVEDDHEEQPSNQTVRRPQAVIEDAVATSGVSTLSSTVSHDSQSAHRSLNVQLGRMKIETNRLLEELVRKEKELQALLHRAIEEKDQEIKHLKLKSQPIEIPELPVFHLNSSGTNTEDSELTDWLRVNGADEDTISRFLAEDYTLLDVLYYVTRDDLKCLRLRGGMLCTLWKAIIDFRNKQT
The series can be described thus: Inhibition of ASK1 assessed as residual activity of enzyme at 25 uM.

For series [3], the target named is RAF proto-oncogene serine/threonine-protein kinase (Homo sapiens) (UniProt P04049). The series can be described thus: Inhibition of c-Raf assessed as residual activity of enzyme at 10 uM.
RAF proto-oncogene serine/threonine-protein kinase (Homo sapiens), sequence (P04049 whole entry): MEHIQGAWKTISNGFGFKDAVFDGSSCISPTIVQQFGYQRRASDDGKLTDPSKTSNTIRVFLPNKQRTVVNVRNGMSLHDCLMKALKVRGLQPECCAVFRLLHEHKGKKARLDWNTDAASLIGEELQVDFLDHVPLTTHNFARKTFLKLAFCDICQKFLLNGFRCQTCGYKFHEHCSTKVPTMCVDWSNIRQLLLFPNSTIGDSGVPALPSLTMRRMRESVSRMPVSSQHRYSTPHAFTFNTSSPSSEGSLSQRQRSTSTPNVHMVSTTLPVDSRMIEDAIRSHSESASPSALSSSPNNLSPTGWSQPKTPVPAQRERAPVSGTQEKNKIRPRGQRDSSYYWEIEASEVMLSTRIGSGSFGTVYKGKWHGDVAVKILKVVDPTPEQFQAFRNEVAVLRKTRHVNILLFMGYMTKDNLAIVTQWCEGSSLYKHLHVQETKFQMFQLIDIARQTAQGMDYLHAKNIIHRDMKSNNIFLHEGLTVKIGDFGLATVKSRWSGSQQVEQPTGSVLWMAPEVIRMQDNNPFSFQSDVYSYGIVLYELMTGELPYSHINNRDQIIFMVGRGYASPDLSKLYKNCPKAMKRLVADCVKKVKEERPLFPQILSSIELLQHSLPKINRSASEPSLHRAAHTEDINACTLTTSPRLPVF
Series [4] shares this target. In words: Inhibition of c-Raf assessed as residual activity of enzyme at 25 uM.
Series [5] concerns the target Cyclin-dependent kinase 5/CDK5 activator 1 (Homo sapiens) (UniProt Q00535+Q15078). The series can be described thus: Inhibition of CDK5/p25 assessed as residual activity of enzyme at 25 uM. Format: protein-complex assay.
Series [6] has as its target Casein kinase I isoform alpha (Homo sapiens) (UniProt P48729). In words: Inhibition of CK1 assessed as residual activity of enzyme at 10 uM.
Series [7] has the same target. In words: Inhibition of CK1 assessed as residual activity of enzyme at 25 uM.
The target in series [8] is Glycogen synthase kinase-3 beta (Homo sapiens) (UniProt P49841). In words: Inhibition of GSK3-beta assessed as residual activity of enzyme at 10 uM.
Glycogen synthase kinase-3 beta (Homo sapiens), sequence (P49841 whole entry, looked up): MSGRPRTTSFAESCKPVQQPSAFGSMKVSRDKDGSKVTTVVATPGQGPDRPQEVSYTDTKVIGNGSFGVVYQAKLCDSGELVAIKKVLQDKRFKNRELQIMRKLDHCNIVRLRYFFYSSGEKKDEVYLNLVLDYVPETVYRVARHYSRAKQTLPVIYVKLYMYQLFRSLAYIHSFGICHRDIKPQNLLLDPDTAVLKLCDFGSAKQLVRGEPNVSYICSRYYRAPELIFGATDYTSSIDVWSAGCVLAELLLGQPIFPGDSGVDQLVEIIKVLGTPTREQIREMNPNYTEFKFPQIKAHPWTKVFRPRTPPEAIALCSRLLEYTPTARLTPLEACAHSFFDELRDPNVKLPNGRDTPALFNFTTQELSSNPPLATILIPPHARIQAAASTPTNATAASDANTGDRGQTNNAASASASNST
Series [9] has as its target Ribosomal protein S6 kinase beta-1 (Homo sapiens) (UniProt P23443). In words: Inhibition of p70S6K assessed as residual activity of enzyme at 10 uM.
In series [10] the target is T2, Serine/threonine-protein kinase TAO3 (Homo sapiens) (UniProt Q9H2K8).
T2 sequence (whole entry): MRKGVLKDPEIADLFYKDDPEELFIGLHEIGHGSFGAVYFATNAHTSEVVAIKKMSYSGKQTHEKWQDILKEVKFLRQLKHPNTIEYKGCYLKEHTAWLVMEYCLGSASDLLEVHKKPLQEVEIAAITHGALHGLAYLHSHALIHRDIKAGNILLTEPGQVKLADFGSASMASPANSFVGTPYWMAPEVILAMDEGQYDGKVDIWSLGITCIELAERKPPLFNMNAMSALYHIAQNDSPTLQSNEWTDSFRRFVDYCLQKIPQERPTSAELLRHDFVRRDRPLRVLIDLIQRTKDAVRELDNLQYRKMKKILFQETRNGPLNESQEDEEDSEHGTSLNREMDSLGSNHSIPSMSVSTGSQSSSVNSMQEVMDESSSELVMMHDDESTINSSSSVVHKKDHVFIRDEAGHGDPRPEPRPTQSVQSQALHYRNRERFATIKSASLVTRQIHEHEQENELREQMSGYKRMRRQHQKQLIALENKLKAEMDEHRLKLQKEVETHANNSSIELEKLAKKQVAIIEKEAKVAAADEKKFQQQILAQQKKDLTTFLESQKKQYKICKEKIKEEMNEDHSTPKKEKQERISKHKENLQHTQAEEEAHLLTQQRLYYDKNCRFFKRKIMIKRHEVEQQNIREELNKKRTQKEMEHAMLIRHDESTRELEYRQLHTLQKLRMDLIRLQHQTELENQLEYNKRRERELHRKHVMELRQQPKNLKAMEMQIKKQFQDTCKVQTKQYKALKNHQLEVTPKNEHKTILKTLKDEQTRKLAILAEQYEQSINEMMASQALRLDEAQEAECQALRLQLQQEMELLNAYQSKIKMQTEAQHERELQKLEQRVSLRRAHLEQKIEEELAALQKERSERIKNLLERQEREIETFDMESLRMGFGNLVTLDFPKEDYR
In words: Inhibition of TAO3 assessed as residual activity of enzyme at 10 uM.

Series [11] has as its system Leucine-rich repeat serine/threonine-protein kinase 2 (Homo sapiens), Q5S007 [G2019S]. The series can be described thus: Inhibition of LRRK2 G2019S mutant expressed in mouse SN4741 cells assessed as reduction in hydrogen peroxide-induced neurotoxicity at 10 uM by measuring cell survival after 48 hrs by crystal violet assay relative to control. Format: cell-based.
The nature of series [12]: Neurotoxicity in rat primary cortical neurons assessed as cell survival at 100 uM after 24 hrs by MTT assay. Format: toxicity, cell-based. To be noted: cerebral cortex neuron. For orientation: Formazan colour is commonly taken as a measure of viable cells.
Series [13] relates to Leucine-rich repeat serine/threonine-protein kinase 2 (Homo sapiens), Q5S007 [G2019S]. The series can be described thus: Inhibition of purified N-terminal GST-tagged LRRK2 G2019S mutant autophosphorylation activity using myelin basic protein as substrate at 25 uM.

Active and inactive are the calls of the source. No cut-off for these calls is given here.

Casein kinase I isoform alpha (Homo sapiens), sequence (P48729 2-337 limits assumed): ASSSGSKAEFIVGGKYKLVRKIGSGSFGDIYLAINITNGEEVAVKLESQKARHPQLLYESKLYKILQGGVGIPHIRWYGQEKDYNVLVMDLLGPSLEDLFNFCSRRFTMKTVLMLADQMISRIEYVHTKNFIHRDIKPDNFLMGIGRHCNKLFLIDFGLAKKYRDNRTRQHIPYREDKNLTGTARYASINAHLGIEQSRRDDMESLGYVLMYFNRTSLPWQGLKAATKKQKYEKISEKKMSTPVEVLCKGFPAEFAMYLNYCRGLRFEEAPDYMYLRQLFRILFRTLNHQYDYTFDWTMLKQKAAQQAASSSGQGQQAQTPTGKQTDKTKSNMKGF
Cyclin-dependent kinase 5/CDK5 activator 1 (Homo sapiens), sequence (Q00535 whole entry, canonical isoform): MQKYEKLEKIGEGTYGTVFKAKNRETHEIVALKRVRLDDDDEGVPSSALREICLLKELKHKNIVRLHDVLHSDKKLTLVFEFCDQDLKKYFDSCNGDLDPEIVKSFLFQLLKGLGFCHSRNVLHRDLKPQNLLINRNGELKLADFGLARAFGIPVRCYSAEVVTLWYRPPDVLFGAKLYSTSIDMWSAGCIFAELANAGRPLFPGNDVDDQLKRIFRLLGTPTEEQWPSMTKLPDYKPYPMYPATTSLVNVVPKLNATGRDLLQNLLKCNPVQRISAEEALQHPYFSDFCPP
Cyclin-dependent kinase 5/CDK5 activator 1 (Homo sapiens), sequence (Q15078 99-307 partner limits assumed): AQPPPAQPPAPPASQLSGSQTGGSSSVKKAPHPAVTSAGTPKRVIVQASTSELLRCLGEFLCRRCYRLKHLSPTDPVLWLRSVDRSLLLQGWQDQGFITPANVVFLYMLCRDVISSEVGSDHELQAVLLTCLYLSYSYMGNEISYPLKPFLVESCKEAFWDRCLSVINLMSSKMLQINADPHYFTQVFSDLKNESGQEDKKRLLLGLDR
Ribosomal protein S6 kinase beta-1 (Homo sapiens), sequence (P23443 whole entry, looked up): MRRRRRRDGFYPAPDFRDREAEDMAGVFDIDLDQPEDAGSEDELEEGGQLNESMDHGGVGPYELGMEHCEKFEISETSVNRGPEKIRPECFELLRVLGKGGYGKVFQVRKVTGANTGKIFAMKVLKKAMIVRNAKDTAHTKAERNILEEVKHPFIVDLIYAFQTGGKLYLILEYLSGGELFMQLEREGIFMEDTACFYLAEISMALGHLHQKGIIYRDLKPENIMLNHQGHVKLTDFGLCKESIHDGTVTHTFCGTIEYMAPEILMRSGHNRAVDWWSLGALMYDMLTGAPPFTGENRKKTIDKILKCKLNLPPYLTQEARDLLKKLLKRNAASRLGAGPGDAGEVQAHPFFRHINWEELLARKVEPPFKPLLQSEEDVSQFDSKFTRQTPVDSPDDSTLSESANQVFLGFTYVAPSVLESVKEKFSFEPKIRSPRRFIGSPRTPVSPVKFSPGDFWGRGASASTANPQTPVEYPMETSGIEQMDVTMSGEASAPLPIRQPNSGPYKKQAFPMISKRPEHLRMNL

Consider `Cc1cc(N/N=C/c2ccncc2)nc2ccccc12`, for which the Activity is 11% in series [1]; 68% in series [2]; 92% in series [3]; 86% in series [4]; 81% in series [5]; 77% in series [6]. Moreover, the Activity in [7] is 59%; in [8], 99%; in series [9] it was 67%; in [10] it was 97%; in series [11], 50%; in [12], “Toxic”. Moreover, the inhibition entry in series [13] is “Active”.
